Patent publication US6197225A, “Chromene compound” (Tokuyama Corporation, priority 1997, dated 2001)

Columns and labels:
[1] = prior-art compound, placed in a dark place after color development; cited from earlier work
[2] = Photochromic properties of cast polymer (2 mm thick) under xenon lamp irradiation for 120 seconds; format: physicochemical; settings: for λ max: chromene composition, or other chromene C1-C4, 0.04% by weight in polymer; for Initial color ε(0): chromene composition, or other chromene C1-C4, non-irradiated; for Color-developing sensitivity: saturated color density/xenon irradiation time
Method: 0.04% by weight of the chromene compound obtained in Example 1 was added to 70 parts of 4G, 15 parts of 3G, 10 parts of GMA, 5 parts of HEMA and 1 part of perbutyl ND, and was mixed together to a sufficient degree. The mixture solution was poured into a mold constituted by a glass plate and a gasket of an ethylene/vinyl acetate copolymer, and was cast-polymerized. By using an air furnace, the polymerization was conducted in a manner that the temperature was gradually raised from 30° C. to 90° C. over a period of 18 hours, and was held at 90° C. for 2 hours. After the polymerization, the polymer was taken out from the glass mold.
By using a xenon lamp, L-2480 (300 W) SHL-100, manufactured by Hamamatsu Photonics Co., the obtained polymer (2 mm thick) was irradiated with a beam of an intensity of 365 nm=2.4 mW/cm^2 and 245 nm=24 μW/cm^2 on the surface of the polymer for 120 seconds through an aero-mass filter (manufactured by Corning Co.) at 20° C.±1° C. to develop color and to measure the photochromic properties which were expressed in the following manner.
1 Maximum absorption wavelength (λmax): λmax of the polymer after it has developed color was found by using a spectrophotometer (instantaneous multi-channel photo-detector, MCPD1000) manufactured by Otsuka Denshi Kogyo Co.
2 Initial color ( ε(0)): Absorbency of the polymer in a non-irradiated state at a wavelength same as the maximum absorption wavelength of when it is irradiated with light.
3 Color density (-)=ε(120)-ε(0). ε(120): Absorbency of the polymer at a maximum absorption wavelength after it was irradiated for 120 seconds under the above-mentioned conditions.
4 Color-developing sensitivity (-/min.)=Saturated color density/xenon irradiation time.
Rate of increase in the color density per a unit time until the color density is saturated.
5 Color fading rate [t1/2 (min.)]=time required until the absorbency of the polymer drops down to one-half of [ε(120)-ε(0)] after irradiated for 120 seconds.
(§1) Photochromic polymers were prepared in the same manner as in Example 42 but using the chromene compounds obtained in Examples 2 to 41, and their maximum absorption wavelengths, color densities, fading rates, changes in the coloring degrees and durabilitys were measured.
(§2) For the purpose of comparison, furthermore, the compounds represented by the following formulas (a), (b), (c), (d), (e) and (f) were measured for their maximum absorption wavelengths, color densities, fading rates, changes in the coloring degrees and durabilitys.
(§3) The procedure was carried out in the same manner as in Example 42 but using 100 parts of AC1 and 133 parts of BC1, the sum of the amounts of AC1 and BC1 being 0.04% by weight. The obtained photochromic polymer was measured for its maximum absorption wavelength, initial color, color density, color-developing sensitivity, fading rate, durability and change in the coloring degree.
(§4) The procedure was carried out in the same manner as in Example 83 but using the known chromene compounds shown in Table 6 instead of the chromene compound used in Example 83. […]

[3] = Aging promotion testing: sunlight 30 min / fading one hour cycles, 10 days (durability, coloring degree); format: physicochemical
Method: In order to promote the aging, furthermore, the following testing was conducted. That is, the obtained photochromic polymer was irradiated with sunlight for 30 minutes to develop color, and its color was permitted to fade for one hour in the light of a fluorescent lamp. This cycle was repeated three times a day for a total of 10 days.
The photochromic properties before and after aged were evaluated by evaluating the color densities before and after aged. The initial color density (T0) and the color density (T30) ten days after the aging promotion testing were measured, and the durability was expressed as described below.
Furthermore, the coloring degrees of before developing color were measured before and after aged by using a color difference meter (SM-4) manufactured by Suga Shikenki Co.
7 Coloring degree before being aged=YI(0).
8 Change in the coloring degree (ΔYI)=YI(10)-YI(0)
YI(10): coloring degree after aged
as §1, §2, §3, §4
The obtained polymer (2 mm thick) was caused to develop color outdoors, and tones of the developed color were observed by eyes 30 seconds and 15 minutes after it was brought to the outdoors, and uniformity in the step of developing color was evaluated. […] Furthermore, the aging promoting testing was conducted in the same manner as in Example 42 to find a coloring degree (YI(0)) before aged and a change in the coloring degree (ΔY).

[4] = single chromene compound 0.04% by weight in polymer, 20° C., Table 5
[5] = single chromene compound 0.04% by weight in polymer, 120 seconds, 20° C., Table 5
[6] = YI(10)-YI(0), single chromene compound in polymer, 10 days aging, Table 5
[7] = single chromene compound in polymer, 10 days aging, Table 5
[8] = chromene composition, or other chromene C1-C4, 120 seconds, Table 6
[9] = chromene composition, or other chromene C1-C4, Table 6
[10] = chromene composition, or other chromene C1-C4, 10 days aging, Table 6

SMILES	fading rate (in words) [1]	Fading rate t1/2 [2, 4]	Maximum absorption wavelength λmax [2, 4]	Color density ε(120)-ε(0) [2, 5]	Change in the coloring degree ΔYI [3, 6]	Light resistance (durability) [3, 7]	λ max ([2]; Table 6)	Color density ε(120)-ε(0) [2, 8]	Initial color ε(0) ([2]; Table 6)	Fading rate t1/2 [2, 9]	Color-developing sensitivity ([2]; Table 6)	Change in the coloring degree ΔYI [3, 10]	Durability [3, 10]
C1=CC2(CC3CCC2C3)Oc2c1ccc1ccccc21 (centres unmarked) [(A)]	slow fading rate	–	–	–	–	–	–	–	–	–	–	–	–
Cc1cc2ccccc2c2c1C=CC(c1ccccc1)(c1ccccc1)O2 [(C)]	a fading rate nearly the same as that of the above-mentioned compound (A)	–	–	–	–	–	–	–	–	–	–	–	–
COc1ccc(C2(c3ccc(OC)cc3)C=Cc3c(C(C)C)cc4ccccc4c3O2)cc1 [Compound 13]	–	3.3 min	500 nm	0.8	1.5	97%	–	–	–	–	–	–	–
COc1ccc(C2(c3ccc(OC(F)(F)F)cc3)C=Cc3c(C)cc4ccccc4c3O2)cc1 (centres unmarked) [Compound 30]	–	8.5 min	490 nm	1.1	2.4	97%	–	–	–	–	–	–	–
CCOC(=O)C1=CC(c2ccccc2)(c2ccccc2)Oc2c1cc(C)c1ccccc21 [b, reference compound]	–	14 min	488 nm	1.2	6.5	80%	–	–	–	–	–	–	–
CC(=O)Oc1ccc2c3c(c(C(C)C)cc2c1)C=CC(c1ccc(C)cc1)(c1ccc(C)cc1)O3 [Compound 10]	–	3.2 min	465 nm	0.6	1.5	93%	–	–	–	–	–	–	–
CCOC(=O)c1c2c(c3ccccc3c1C)OC(c1ccccc1)(c1ccccc1)C=C2 [Compound C2, 5-Ethoxycarbonyl-6-methyl-2,2-diphenyl-2H-benzo(h) chromene, reference compound]	–	–	–	–	–	–	458 nm	0.9	0.02	4.0 min	0.2 -/min.	4.0	95%
CC(C)(C)c1cc2ccccc2c2c1C=CC1(O2)C2CC3CC(C2)CC1C3 (centres unmarked) [Compound 24]	–	1.8 min	445 nm	0.6	5.0	95%	–	–	–	–	–	–	–
CC(C)c1cc2ccccc2c2c1C=CC1(O2)C2CCC1CC2 (centres unmarked) [Compound 19]	–	1.0 min	448 nm	0.5	5.5	92%	–	–	–	–	–	–	–
CCCCc1cc2cccc(Br)c2c2c1C=CC(c1ccc(OC)c(F)c1)(c1ccc(OC)c(F)c1)O2 [Compound 38]	–	4.8 min	482 nm	0.8	2.8	96%	–	–	–	–	–	–	–
CCCc1cc2ccccc2c2c1C=CC(c1ccc(OC)cc1)(c1ccc(OC)cc1)O2 [Compound 35]	–	4.5 min	498 nm	0.9	2.3	98%	–	–	–	–	–	–	–
C1=CC(c2ccccc2)(c2ccccc2)Oc2ccc3ccccc3c21 [Compound C4, 3,3-Diphenyl-3H-benzo(f)chromene, reference compound]	–	–	–	–	–	–	432 nm	0.5	0.01	1.0 min	0.2 -/min.	5.0	95%
CC(C)c1cc2ccccc2c2c1C=CC(c1ccccc1)(c1ccc(OC(F)(F)F)cc1)O2 (centres unmarked) [Compound 16]	–	5.2 min	470 nm	0.9	1.2	99%	–	–	–	–	–	–	–
CCC(C)(CC)c1cc2ccccc2c2c1C=CC(c1ccc(OC)c(F)c1)(c1ccc(OC)c(F)c1)O2 [Compound 5]	–	2.2 min	465 nm	0.6	1.5	99%	–	–	–	–	–	–	–
COc1ccc(C2(c3ccc(OC)cc3)C=Cc3c(C)cc4c(OC)cccc4c3O2)cc1 [Compound 33]	–	5.5 min	520 nm	1.3	2.2	98%	–	–	–	–	–	–	–
